Data as given in patent US20090143426A1, “Synthesis of 1,3,6-trisubstituted-2-carboxyquinol-4-ones as selective ET A antagonists and their use as medicaments” (priority 2007, published 2009).
Positions of bridges follow the written chain, without caps; N, C: chain ends. Non-standard residues stand in square brackets, D forms with d. Residues, ends and D or L forms follow the SMILES beside them. No end group written: not given here.

Legend:
[1] = tested on: LPS-stimulated pregnant mice; details: Koscica et al. 2004, Wang et al. 2008; cited from earlier work
[2] = tested on: LPS-induced influx of neutrophils into the lung; details: Bhavsar et al. 2008a, 2008b; cited from earlier work
[3] = tested on: BALF neutrophils in female Syrian hamsters; experiment: Animal model of smoking related acute lung injury (ET-1 plus cigarette smoke, BALF neutrophils); assay type: in vivo, hamster
Description: Animal models of smoking related acute lung injury. The Animal Care and Utilization Committee of the College of Pharmacy and Allied Health Professions, St. John's University approved all experimental protocols, and the research was conducted according to the requirements of NIH Guide for the Care and Use of Laboratory Animals (revised 1996).
Female Syrian hamsters, weighing approximately 100 g each, were divided into two groups as follows: Group 1 was treated IP with: 1) 500 μg of HJP272 in 0.5 mL Na2CO3 and 2) 5 μg ET-1 in 0.25 mL PBS 60 minutes later, followed immediately by exposure to cigarette smoke for two hours. This regimen was continued for three days.
Group 2 was treated IP with: 1) 0.5 mL Na2CO3 and 2) […] ET-1 in 0.25 mL PBS 60 minutes later, followed immediately by exposure to cigarette smoke for three consecutive days as per Group 1. The animals were placed in a 70×48×38 cm chamber and passively exposed to cigarette smoke produced by a TE-10 smoking machine (Teague Enterprises, Davis, Calif.) that simultaneously burned two filtered research-grade cigarettes (type 2R4F, University of Kentucky). Smoke from both the filtered and burning ends of the cigarette was collected, and then mixed together with air in a separate chamber, thus simulating second-hand smoke exposure. Each cigarette was puffed once per minute for two seconds at a flow rate of 1.05 LPM, yielding 35 mL of smoke. This cycle was repeated nine times before ejecting the cigarette and loading a new one. Proper flow rate was maintained by a vacuum pump that established negative pressure at the exhaust port. Total smoke particulates averaged 87 mg per cubic meter.
All animals were sacrificed 24 hours after completing the smoke exposure regimen to maximize the neutrophil population in the lung, and the percentage of BALF neutrophils was measured (van der Vaart et al. 2004)

Molecule: CC(C)C[C@@H]1NC(=O)[C@@H](C(C)C)NC(=O)[C@@H]2CCCN2C(=O)[C@@H](CC(=O)O)NC(=O)[C@@H](Cc2c[nH]c3ccccc23)NC1=O [BQ-123] (cyclo(L[dW][dD]P[dV]))
- incidence of premature delivery [1]: decreased incidence of premature delivery

Molecule: CCOC(=O)c1cccc(Cc2c(C(=O)OCC)n(Cc3cc4c(cc3CC)OCO4)c3ccc(O)cc3c2=O)c1 [Product 1a, Ethyl 3-(3-(ethoxycarbonyl)benzyl)-1-((6-ethylbenzo[d][1,3]dioxol-5-yl)methyl)-6-hydroxy-4-oxo-1,4-dihydroquinoline-2-carboxylate]
- melting point: 232 to 234 °C

Molecule: CCOC(=O)c1cccc(Cc2c(C(=O)OCC)n(Cc3cc4c(cc3CC)OCO4)c3ccc(OCC)cc3c2=O)c1 [Product 1b, Ethyl 6-ethoxy-3-(3-(ethoxycarbonyl)benzyl)-1-((6-ethylbenzo[d][1,3]dioxol-5-yl)methyl)-4-oxo-1,4-dihydroquinoline-2-carboxylate]
- melting point: 124 to 126 °C

Molecule: CCCOc1ccc2c(c1)c(=O)c(Cc1cccc(C(=O)OCC)c1)c(C(=O)OCC)n2Cc1cc2c(cc1CC)OCO2 [Product 1c, Ethyl 3-(3-(ethoxycarbonyl)benzyl)-1-((6-ethylbenzo[d][1,3]dioxol-5-yl)methyl)-4-oxo-6-propoxy-1,4-dihydroquinoline-2-carboxylate]
- melting point: 134 to 135 °C

Molecule: CCOC(=O)c1cccc(Cc2c(C(=O)OCC)n(Cc3cc4c(cc3CC)OCO4)c3ccc(OC(C)C)cc3c2=O)c1 [Product 1d, Ethyl 3-(3-(ethoxycarbonyl)benzyl)-1-((6-ethylbenzo[d][1,3]dioxol-5-yl)methyl)-6-isopropoxy-4-oxo-1,4-dihydroquinoline-2-carboxylate]
- melting point: 124 to 126 °C

Molecule: C=CCOc1ccc2c(c1)c(=O)c(Cc1cccc(C(=O)OCC)c1)c(C(=O)OCC)n2Cc1cc2c(cc1CC)OCO2 [Product 1e, Ethyl 6-(allyloxy)-3-(3-(ethoxycarbonyl)benzyl)-1-((6-ethylbenzo[d][1,3]dioxol-5-yl)methyl)-4-oxo-1,4-dihydroquinoline-2-carboxylate]
- melting point: 128 to 131 °C

Molecule: CCCCOc1ccc2c(c1)c(=O)c(Cc1cccc(C(=O)OCC)c1)c(C(=O)OCC)n2Cc1cc2c(cc1CC)OCO2 [Product 1g, Ethyl 6-butoxy-3-(3-(ethoxycarbonyl)benzyl)-1-((6-ethylbenzo[d][1,3]dioxol-5-yl)methyl)-4-oxo-1,4-dihydroquinoline-2-carboxylate]
- melting point: 147 to 150 °C

Molecule: CCOC(=O)c1cccc(Cc2c(C(=O)OCC)n(Cc3cc4c(cc3CC)OCO4)c3ccc(OCC(C)C)cc3c2=O)c1 [Product 1h, Ethyl 3-(3-(ethoxycarbonyl)benzyl)-1-((6-ethylbenzo[d][1,3]dioxol-5-yl)methyl)-6-isobutoxy-4-oxo-1,4-dihydroquinoline-2-carboxylate]
- melting point: 129 to 132 °C

Molecule: CCOC(=O)c1cccc(Cc2c(C(=O)OCC)n(Cc3cc4c(cc3CC)OCO4)c3ccc(OC(C)CC)cc3c2=O)c1 (stereo not drawn) [Product 1i, Ethyl 6-sec-butoxy-3-(3-(ethoxycarbonyl)benzyl)-1-((6-ethylbenzo[d][1,3]dioxol-5-yl)methyl)-4-oxo-1,4-dihydroquinoline-2-carboxylate]
- melting point: 129 to 132 °C

Molecule: CCCCCOc1ccc2c(c1)c(=O)c(Cc1cccc(C(=O)OCC)c1)c(C(=O)OCC)n2Cc1cc2c(cc1CC)OCO2 [Product 1k, Ethyl 3-(3-(ethoxycarbonyl)benzyl)-1-((6-ethylbenzo[d][1,3]dioxol-5-yl)methyl)-4-oxo-6-(pentyloxy)-1,4-dihydroquinoline-2-carboxylate]
- melting point: 98 to 99 °C

Molecule: CCOC(=O)c1cccc(Cc2c(C(=O)OCC)n(Cc3cc4c(cc3CC)OCO4)c3ccc(OCCCO)cc3c2=O)c1 [Product 1l, Ethyl 3-(3-(ethoxycarbonyl)benzyl)-1-((6-ethylbenzo[d][1,3]dioxol-5-yl)methyl)-6-(3-hydroxypropoxy)-4-oxo-1,4-dihydroquinoline-2-carboxylate]
- melting point: 129 to 132 °C

Molecule: CCOc1ccc2c(c1)c(=O)c(Cc1cccc(C(=O)O)c1)c(C(=O)O)n2Cc1cc2c(cc1CC)OCO2 [Product 1o, 3-(3-carboxybenzyl)-6-ethoxy-1-((6-ethylbenzo[d][1,3]dioxol-5-yl)methyl)-4-oxo-1,4-dihydroquinoline-2-carboxylic acid]
- melting point: 213 to 215 °C

Molecule: CCCOc1ccc2c(c1)c(=O)c(Cc1cccc(C(=O)O)c1)c(C(=O)O)n2Cc1cc2c(cc1CC)OCO2 [Product 1p, 3-(3-carboxybenzyl)-1-((6-ethylbenzo[d][1,3]dioxol-5-yl)methyl)-4-oxo-6-propoxy-1,4-dihydroquinoline-2-carboxylic acid]
- melting point: 162 to 163 °C

Molecule: CCc1cc2c(cc1Cn1c(C(=O)O)c(Cc3cccc(C(=O)O)c3)c(=O)c3cc(OC(C)C)ccc31)OCO2 [Product 1q, 3-(3-carboxybenzyl)-1-((6-ethylbenzo[d][1,3]dioxol-5-yl)methyl)-6-isopropoxy-4-oxo-1,4-dihydroquinoline-2-carboxylic acid]
- melting point: 199 to 200 °C

Molecule: C=CCOc1ccc2c(c1)c(=O)c(Cc1cccc(C(=O)O)c1)c(C(=O)O)n2Cc1cc2c(cc1CC)OCO2 [Product 1r, 6-(allyloxy)-3-(3-carboxybenzyl)-1-((6-ethylbenzo[d][1,3]dioxol-5-yl)methyl)-4-oxo-1,4-dihydroquinoline-2-carboxylic acid]
- melting point: 165 to 166 °C

Molecule: CCCCOc1ccc2c(c1)c(=O)c(Cc1cccc(C(=O)O)c1)c(C(=O)O)n2Cc1cc2c(cc1CC)OCO2 [Product 1t, 6-butoxy-3-(3-carboxybenzyl)-1-((6-ethylbenzo[d][1,3]dioxol-5-yl)methyl)-4-oxo-1,4-dihydroquinoline-2-carboxylic acid]
- melting point: 161 to 162 °C

Molecule: CCc1cc2c(cc1Cn1c(C(=O)O)c(Cc3cccc(C(=O)O)c3)c(=O)c3cc(OCC(C)C)ccc31)OCO2 [Product 1u, 3-(3-carboxybenzyl)-1-((6-ethylbenzo[d][1,3]dioxol-5-yl)methyl)-6-isobutoxy-4-oxo-1,4-dihydroquinolin-2-carboxylic]
- melting point: 185 to 186 °C

Molecule: CCc1cc2c(cc1Cn1c(C(=O)O)c(Cc3cccc(C(=O)O)c3)c(=O)c3cc(OCC4CC4)ccc31)OCO2 [Product 1w, 3-(3-carboxybenzyl)-6-(cyclopropylmethoxy)-1-((6-ethylbenzo[d][1,3]dioxol-5-yl)methyl)-4-oxo-1,4-dihydroquinoline-2-carboxylic acid]
- melting point: 229 to 231 °C

Molecule: CCCCCOc1ccc2c(c1)c(=O)c(Cc1cccc(C(=O)O)c1)c(C(=O)O)n2Cc1cc2c(cc1CC)OCO2 [Product 1x, 3-(3-carboxybenzyl)-1-((6-ethylbenzo[d][1,3]dioxol-5-yl)methyl)-4-oxo-6-(pentyloxy)-1,4-dihydroquinoline-2-carboxylic acid]
- melting point: 152 to 155 °C

Molecule: CCc1cc2c(cc1Cn1c(C(=O)O)c(Cc3cccc(C(=O)O)c3)c(=O)c3cc(OCCCO)ccc31)OCO2 [Product 1y, 3-(3-carboxybenzyl)-1-((6-ethylbenzo[d][1,3]dioxol-5-yl)methyl)-6-(3-hydroxypropoxy)-4-oxo-1,4-dihydroquinoline-2-carboxylic acid]
- melting point: 192 to 194 °C

Molecule: CC(C)C[C@H](NP(=O)(O)O[C@@H]1O[C@@H](C)[C@H](O)[C@@H](O)[C@H]1O)C(=O)N[C@@H](Cc1c[nH]c2ccccc12)C(=O)O [phosphoramidon]
- incidence of premature delivery [1]: decreases the incidence of premature delivery
- LPS-induced influx of neutrophils into the lung [2]: markedly reduces

Molecule: Endothelin-1 (CSCSSLMDKECVYFCHLDIIW; disulfide 1-15, 3-11; ends not checked; UniProt P05305 53-73, looked up) [ET-1, reference compound]
- percentage of BALF neutrophils ([3]; ET-1 and room air): 1%
- percentage of BALF neutrophils ([3]; ET-1 prior to cigarette smoke, smoke-only control 18%): 46%
